This is an account of results in patent US11999727B2 (Tango Therapeutics, Inc., priority 2020, dated 2024).

Molecules are shown by their SMILES.

The subject of assay [1] is HAP1 MTAP-intact cell line. As to the kind of experiment: SDMA in-cell western assay, HAP1 MTAP-intact. It counts as cell-based. Conditions: Homo sapiens, HAP1, SDMA in-cell western, HAP1 MTAP-intact; read-out: MTAP HAP1 intact IC50. The essentials:
(§1)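 IC50 values come from SDMA signal quantified by in-cell western in two HAP1 lines, one with native MTAP levels and one lacking MTAP.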

The target of assay [2] is T1, PRMT5 (Homo sapiens, UniProt O14744).
T1 construct: purchased Viva (custom protein)
As to the kind of experiment: PRMT5 biochemical IC50 assay with SAM as cofactor. The conditions noted are these: PRMT5, SAM as cofactor; read-out: SAM IC50.

Assay [3] addresses T1, PRMT5. In words: PRMT5 biochemical IC50 assay with MTA as cofactor. Conditions: PRMT5, MTA as cofactor; read-out: MTA IC50.
In assay [4] the target is T1, PRMT5. In words: PRMT5 biochemical IC50 assay with no cofactor. The conditions noted are these: PRMT5, no cofactor; read-out: No Cofactor/rel IC50. The source says: Table 1 indicates IC50 values (μM) against PRMT5 for exemplary compounds in the presence of SAM as cofactor, with no cofactor, and with MTA as cofactor, respectively (columns 4-6). […] Ki values can be calculated from the IC50 values as described in the Examples section. As detailed in the Examples section, for the assay performed in the presence of SAM, IC50=Ki×1.5 (Ki=IC50/1.5).

Assay [5] concerns HAP1 MTAP-deleted cell line. As to the kind of experiment: SDMA in-cell western assay, HAP1 MTAP-deleted. It counts as cell-based. The conditions noted are these: for IC50: Homo sapiens, HAP1, SDMA in-cell western, HAP1 MTAP-deleted, read-out: HAP1 MTAP deleted IC50; for MTAP intact/deleted ratio: IC50 ratio HAP1 MTAP-intact / HAP1 MTAP-deleted, SDMA in-cell western. The essentials:
as §1

Assay [6] has as its system HAP1 MTAP-deleted cell line. In words: Viability assay, MTAP-deleted cell line. The class given is cell-based. The conditions noted are these: Homo sapiens, HAP1, viability assay, MTAP-deleted cell line; read-out: HAP1 MTAP deleted viability. The source says:
Table 1 additionally indicates IC50 values in a viability assay for the MTAP-deleted cell line (column 10), indicating the effect of treatment with compound on cell survival.

T1 sequence (O14744 whole entry): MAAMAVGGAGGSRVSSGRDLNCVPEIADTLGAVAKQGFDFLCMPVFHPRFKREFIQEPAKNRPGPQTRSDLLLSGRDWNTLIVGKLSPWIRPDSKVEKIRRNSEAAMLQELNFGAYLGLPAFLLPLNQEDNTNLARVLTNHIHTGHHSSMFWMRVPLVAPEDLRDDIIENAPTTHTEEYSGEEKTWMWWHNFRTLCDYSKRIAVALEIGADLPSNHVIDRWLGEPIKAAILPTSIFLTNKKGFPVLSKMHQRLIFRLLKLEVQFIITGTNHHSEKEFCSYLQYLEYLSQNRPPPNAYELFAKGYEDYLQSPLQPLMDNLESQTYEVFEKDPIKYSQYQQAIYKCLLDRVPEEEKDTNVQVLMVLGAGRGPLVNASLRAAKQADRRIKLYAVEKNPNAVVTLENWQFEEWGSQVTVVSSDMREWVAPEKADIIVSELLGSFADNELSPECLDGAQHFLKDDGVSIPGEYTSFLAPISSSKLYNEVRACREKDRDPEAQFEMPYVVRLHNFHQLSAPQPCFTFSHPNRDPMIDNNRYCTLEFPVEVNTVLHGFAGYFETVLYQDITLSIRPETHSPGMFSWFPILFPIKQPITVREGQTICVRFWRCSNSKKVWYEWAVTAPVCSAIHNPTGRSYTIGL
T1 sequence (Q9BQA1 whole entry partner): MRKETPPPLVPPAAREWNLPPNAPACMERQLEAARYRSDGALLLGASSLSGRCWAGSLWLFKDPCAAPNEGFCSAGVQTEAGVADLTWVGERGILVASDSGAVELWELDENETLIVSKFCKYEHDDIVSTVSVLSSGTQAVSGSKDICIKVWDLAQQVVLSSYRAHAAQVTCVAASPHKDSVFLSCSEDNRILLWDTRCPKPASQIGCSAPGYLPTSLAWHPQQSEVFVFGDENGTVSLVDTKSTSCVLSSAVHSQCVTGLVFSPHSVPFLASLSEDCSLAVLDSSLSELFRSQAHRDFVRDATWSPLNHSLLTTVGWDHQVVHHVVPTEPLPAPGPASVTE

As for `C[C@@H]1CC[C@@H](c2cncc(F)c2)N(C(=O)C(=O)Nc2cncc(C(N)=O)c2)C1` (racemic) [Compound 248, rac-5-{2-[(2R,5S)-2-(5-Fluoropyridin-3-yl)-5-methylpiperidin-1-yl]-2-oxoacetamido}pyridine-3-carboxamide], the IC50 in assay [1] was above 1000 nM; on PRMT5 [2] it was above 500 nM; at PRMT5 [3], 50 to 500 nM; on PRMT5 [4], above 500 nM; in assay [5] it was above 1000 nM; in assay [6] it was above 10000 nM. Besides, the MTAP intact/deleted ratio entry in assay [5] was “B (an IC50 ratio greater than or equal to 3 fold but lower than 10 fold)”.

Take `CNC(=O)[C@@H]1CC[C@@H](c2ccccc2)N(C(=O)C(=O)Nc2cnc(N)c(C)c2)C1` (racemic) [Compound 249, 1-(2-((6-amino-5-methylpyridin-3-yl)amino)-2-oxoacetyl)-N-methyl-6-phenylpiperidine-3-carboxamide]: the IC50 in assay [1] was above 1000 nM; on PRMT5 [2], 50 to 500 nM; at PRMT5 [3], 50 to 500 nM; at PRMT5 [4] it was above 500 nM; in assay [5], above 1000 nM; in assay [6], above 10000 nM. Further, the MTAP intact/deleted ratio result in assay [5] is listed as “C (an IC50 ratio of less than 3 fold)”.

In the case of `C[C@@H]1CC[C@@H](c2ccc(OC(F)(F)F)cc2)N(C(=O)C(=O)Nc2cncc(C(N)=O)c2)C1` (racemic) [Compound 250, rac-5-{2-[(2R,5S)-5-Methyl-2-[4-(trifluoromethoxy)phenyl]piperidin-1-yl]-2-oxoacetamido}pyridine-3-carboxamide], the IC50 in assay [1] is above 1000 nM; on PRMT5 [2], 50 to 500 nM; at PRMT5 [3], below 50 nM; on PRMT5 [4], 50 to 500 nM; in assay [5], below 100 nM; in assay [6], 1000 to 10000 nM. In assay [5], the MTAP intact/deleted ratio result is on record as “A (an IC50 ratio greater than or equal to 10 fold)”.

As to `C[C@@H]1CC[C@@H](c2ccc(C(F)(F)F)cc2)N(C(=O)C(=O)Nc2cncc(C(N)=O)c2)C1` (racemic) [Compound 251, rac-5-{2-[(2R,5S)-5-Methyl-2-[4-(trifluoromethyl)phenyl]piperidin-1-yl]-2-oxoacetamido}pyridine-3-carboxamide], the IC50 in assay [1] was above 1000 nM; at PRMT5 [2], 50 to 500 nM; at PRMT5 [3], below 50 nM; on PRMT5 [4], 50 to 500 nM; in assay [5], below 100 nM; in assay [6] it was 1000 to 10000 nM. Also, in assay [5], the MTAP intact/deleted ratio entry is recorded as “A (an IC50 ratio greater than or equal to 10 fold)”.

For `C[C@@H]1CC[C@@H](c2ccc(Cn3cncn3)cc2)N(C(=O)C(=O)Nc2cncc(C(N)=O)c2)C1` (racemic) [Compound 252, rac-5-{2-[(2R,5S)-5-Methyl-2-{4-[(1H-1,2,4-triazol-1-yl)methyl]phenyl}piperidin-1-yl]-2-oxoacetamido}pyridine-3-carboxamide], the IC50 is above 1000 nM in assay [1]; 50 to 500 nM on PRMT5 [2]; below 50 nM on PRMT5 [3]; 50 to 500 nM on PRMT5 [4]; 100 to 1000 nM in assay [5]; above 10000 nM in assay [6]. The MTAP intact/deleted ratio entry in assay [5] is “A (an IC50 ratio greater than or equal to 10 fold)”.

As to `CNC(=O)[C@@H]1CC[C@H](c2ccccc2)N(C(=O)C(=O)Nc2cnc(N)c(C)c2)C1` (racemic) [Compound 253, 1-(2-((6-amino-5-methylpyridin-3-yl)amino)-2-oxoacetyl)-N-methyl-6-phenylpiperidine-3-carboxamide], the IC50 in assay [1] is above 1000 nM; at PRMT5 [2], 50 to 500 nM; on PRMT5 [3], 50 to 500 nM; at PRMT5 [4] it was above 500 nM; in assay [5], above 1000 nM; in assay [6] it was above 10000 nM. In assay [5], the MTAP intact/deleted ratio entry is “C (an IC50 ratio of less than 3 fold)”.

For the compound `C[C@@H]1CC[C@@H](c2ccc(F)c(C(F)(F)F)c2)N(C(=O)C(=O)Nc2cncc(C(N)=O)c2)C1` (racemic) [Compound 255, rac-5-{2-[(2R,5S)-2-[4-Fluoro-3-(trifluoromethyl)phenyl]-5-methylpiperidin-1-yl]-2-oxoacetamido}pyridine-3-carboxamide], the IC50 was above 1000 nM in assay [1]; 50 to 500 nM at PRMT5 [2]; below 50 nM at PRMT5 [3]; 50 to 500 nM on PRMT5 [4]; 100 to 1000 nM in assay [5]; 1000 to 10000 nM in assay [6]. Further, in assay [5], the MTAP intact/deleted ratio entry is recorded as “A (an IC50 ratio greater than or equal to 10 fold)”.

`C[C@@H]1CC[C@@H](c2ccc(-n3cccn3)cc2)N(C(=O)C(=O)Nc2cncc(C(N)=O)c2)C1` (racemic) [Compound 256, rac-5-{2-[(2R,5S)-5-Methyl-2-[4-(1H-pyrazol-1-yl)phenyl]piperidin-1-yl]-2-oxoacetamido}pyridine-3-carboxamide]: the IC50 in assay [1] is above 1000 nM; on PRMT5 [2], 50 to 500 nM; at PRMT5 [3] it was below 50 nM; on PRMT5 [4], 50 to 500 nM; in assay [5], below 100 nM; in assay [6], 1000 to 10000 nM. In addition, the MTAP intact/deleted ratio entry in assay [5] is listed as “A (an IC50 ratio greater than or equal to 10 fold)”.

In the case of `C[C@@H]1CC[C@@H](c2cnc3ccccc3c2)N(C(=O)C(=O)Nc2cncc(C(N)=O)c2)C1` (racemic) [Compound 257, rac-5-{2-[(2R,5S)-5-Methyl-2-(quinolin-3-yl)piperidin-1-yl]-2-oxoacetamido}pyridine-3-carboxamide], the IC50 in assay [1] was above 1000 nM; at PRMT5 [2], above 500 nM; on PRMT5 [3] it was 50 to 500 nM; at PRMT5 [4] it was above 500 nM; in assay [5], above 1000 nM; in assay [6] it was above 10000 nM. The MTAP intact/deleted ratio result in assay [5] is listed as “B (an IC50 ratio greater than or equal to 3 fold but lower than 10 fold)”.

For `C[C@@H]1CC[C@@H](c2ccc(C3(O)CCC3)cc2)N(C(=O)C(=O)Nc2cncc(C(N)=O)c2)C1` (racemic) [Compound 259, rac-5-{2-[(2R,5S)-2-[4-(1-Hydroxycyclobutyl)phenyl]-5-methylpiperidin-1-yl]-2-oxoacetamido}pyridine-3-carboxamide], the IC50 is above 1000 nM in assay [1]; 50 to 500 nM on PRMT5 [2]; 50 to 500 nM on PRMT5 [3]; 50 to 500 nM on PRMT5 [4]; 100 to 1000 nM in assay [5]; above 10000 nM in assay [6]. In addition, in assay [5], the MTAP intact/deleted ratio entry is listed as “A (an IC50 ratio greater than or equal to 10 fold)”.

For the compound `C[C@@H]1CC[C@@H](c2cccc(C3CCC3)c2)N(C(=O)C(=O)Nc2cncc(C(N)=O)c2)C1` (racemic) [Compound 261, rac-5-{2-[(2R,5S)-2-(3-Cyclobutylphenyl)-5-methylpiperidin-1-yl]-2-oxoacetamido}pyridine-3-carboxamide], the IC50 is above 1000 nM in assay [1]; 50 to 500 nM at PRMT5 [2]; below 50 nM at PRMT5 [3]; 50 to 500 nM at PRMT5 [4]; below 100 nM in assay [5]; 1000 to 10000 nM in assay [6]. In addition, the MTAP intact/deleted ratio entry in assay [5] is listed as “A (an IC50 ratio greater than or equal to 10 fold)”.

As for `C[C@@H]1CC[C@@H](c2ccc(F)c(F)c2)N(C(=O)C(=O)Nc2cncc(C(N)=O)c2)C1` (racemic) [Compound 263, rac-5-{2-[(2R,5S)-2-(3,4-Difluorophenyl)-5-methylpiperidin-1-yl]-2-oxoacetamido}pyridine-3-carboxamide], the IC50 in assay [1] was above 1000 nM; at PRMT5 [2], 50 to 500 nM; on PRMT5 [3], below 50 nM; on PRMT5 [4], 50 to 500 nM; in assay [5], 100 to 1000 nM; in assay [6], 1000 to 10000 nM. Also, in assay [5], the MTAP intact/deleted ratio result is listed as “A (an IC50 ratio greater than or equal to 10 fold)”.
